In US20240251795A1, “METHOD FOR C[…] RESISTANT PESTS & COMPOUNDS THEREFOR” (priority 2021, published 2024):
≈ marks a conversion by molar mass, not a printed value.

system: Plutella xylostella resistant strain R4 (RyR mutation G4946E); assay: Resistant Plutella xylostella R4 (Diamond back moth) larvicide L1, feeding/contact; type: in vivo; conditions: L1, artificial diet in 24-well plates, around 30 eggs; mortality vs untreated assessed 8 days after infestation
Description: Resistant Plutella xylostella R^4 (Diamond back moth) larvicide L1, feeding/contact 24-well microtiter plates with artificial diet were treated with aqueous test solutions prepared from 10′000 ppm DMSO stock solutions by pipetting. After drying, around 30 Plutella eggs were pipetted through a plastic stencil onto a gel blotting paper and the plate was closed with it. The samples were assessed for mortality in comparison to untreated samples 8 days after infestation.
CTPR was used as standard and a resistance factor of 242 was obtained for this strain
Plutella xylostella resistant strain R4 originated in the lab in 2021 from crossing the R1 strain with a lab-reared susceptible P. xylostella strain (SUS). R4 can be reared and tested on artificial diet and also carries the RyR mutation G4946E conferring resistance to diamides. The strain is selected approximately every two weeks with chlorantraniliprole.

Row | SMILES | Rate providing at least 80% control of the resistant strain of Plutella xylostella R4 [ppm]
1 | CC(C)NC(=O)c1cc2nn(C)cc2c(Cl)c1NC(=O)c1cc(C(F)(F)F)nn1-c1ncccc1Cl | >50
2 | CNC(=O)c1cc2nc(C)oc2c(C)c1NC(=O)c1cc(Br)nn1-c1ncccc1Cl | >50
3 | Cn1cc2c(Cl)c(NC(=O)c3cc(C(F)(F)F)nn3-c3ncccc3Cl)c(C(N)=O)cc2n1 [P.36, 4-chloro-5-[[2-(3-chloro-2-pyridyl)-5-(trifluoromethyl)pyrazole-3-carbonyl]amino]-2-methyl-indazole-6-carboxamide] | 12.5
4 | Cc1nc2cc(C(N)=O)c(NC(=O)c3cc(Br)nn3-c3ncccc3Cl)c(C)c2o1 [P.46, 6-[[5-bromo-2-(3-chloro-2-pyridyl)pyrazole-3-carbonyl]amino]-2,7-dimethyl-1,3-benzoxazole-5-carboxamide] | 12.5

same assay, conditions: strain R4; CTPR used as standard

Row | SMILES | resistance factor
5 | CNC(=O)c1cc(Cl)cc(C)c1NC(=O)c1cc(Br)nn1-c1ncccc1Cl [CTPR, chlorantraniliprole, reference compound] | 242

system: not given; assay: not given; conditions: not given

Row | SMILES | melting point [°C]
6 | Cc1c(NC(=O)c2cc(C(F)(F)F)nn2-c2ncccc2Cl)c(C(N)=O)cc2c1OC(F)(F)O2 | 223 to 225
7 | NC(=O)c1cc2ccccc2c(Cl)c1NC(=O)c1cc(OCC(F)(F)C(F)(F)F)nn1-c1ncccc1Cl | 264 to 266
8 | Cc1c(NC(=O)c2cc(Br)nn2-c2ncccc2Cl)c(C(N)=O)cc2nn(C)cc12 | 242 to 244
9 | NC(=O)c1cc2cc(Br)ccc2c(Cl)c1NC(=O)c1cc(Cn2ncc3c(Cl)cccc32)nn1-c1ncccc1Cl | 149 to 157
10 | NC(=O)c1cc2cc(Br)ccc2c(Cl)c1NC(=O)c1cc(Cn2nnc(C(F)(F)F)n2)nn1-c1ncccc1Cl | 190 to 226
11 | NC(=O)c1cc2ccccc2c(Cl)c1NC(=O)c1cc(C(F)(F)F)nn1-c1ncccc1Cl [P.10, N-(3-carbamoyl-1-chloro-2-naphthyl)-2-(3-chloro-2-pyridyl)-5-(trifluoromethyl)pyrazole-3-carboxamide] | 155 to 157
12 | NC(=O)c1cc2ccccc2c(Cl)c1NC(=O)c1cc(OCC(F)(F)F)nn1-c1ncccc1Cl [P.11, N-(3-carbamoyl-1-chloro-2-naphthyl)-2-(3-chloro-2-pyridyl)-5-(2,2,2-trifluoroethoxy)pyrazole-3-carboxamide] | 158 to 160
13 | COc1cc(C(=O)Nc2c(C(N)=O)cc3ccccc3c2Cl)n(-c2ncccc2Cl)n1 [P.13, N-(3-carbamoyl-1-chloro-2-naphthyl)-2-(3-chloro-2-pyridyl)-5-methoxy-pyrazole-3-carboxamide] | 154 to 156
14 | NC(=O)c1nc2ccccc2c(Cl)c1NC(=O)c1cc(Br)nn1-c1ncccc1Cl [P.18, 3-[[5-bromo-2-(3-chloro-2-pyridyl)pyrazole-3-carbonyl]amino]-4-chloro-quinoline-2-carboxamide] | 204 to 206
15 | NC(=O)c1cc2ccccc2c(Cl)c1NC(=O)c1cc(OC(F)F)nn1-c1ncccc1Cl [P.20, N-(3-carbamoyl-1-chloro-2-naphthyl)-2-(3-chloro-2-pyridyl)-5-(difluoromethoxy)pyrazole-3-carboxamide] | 143 to 145
16 | NC(=O)c1cc2cc(Br)ccc2c(Br)c1NC(=O)c1cc(Cl)nn1-c1ncccc1Cl [P.31, 5-chloro-2-(3-chloro-2-pyridyl)-N-(1,6-dibromo-3-carbamoyl-2-naphthyl)pyrazole-3-carboxamide] | 170 to 172
17 | Cc1ccc2c(C)c(NC(=O)c3cc(C(F)(F)F)nn3-c3ncccc3Cl)c(C(N)=O)cc2c1 [P.32, N-(3-carbamoyl-1,6-dimethyl-2-naphthyl)-2-(3-chloro-2-pyridyl)-5-(trifluoromethyl)pyrazole-3-carboxamide] | 216 to 218
18 | Cc1c(NC(=O)c2cc(OCC(F)(F)F)nn2-c2ncccc2Cl)c(C(N)=O)cc2ncsc12 [P.44, 6-[[2-(3-chloro-2-pyridyl)-5-(2,2,2-trifluoroethoxy)pyrazole-3-carbonyl]amino]-7-methyl-1,3-benzothiazole-5-carboxamide] | 135 to 140
19 | Cc1nc2cc(C(N)=O)c(NC(=O)c3cc(Br)nn3-c3ncccc3Cl)c(C)c2s1 [P.45, 6-[[5-bromo-2-(3-chloro-2-pyridyl)pyrazole-3-carbonyl]amino]-2,7-dimethyl-1,3-benzothiazole-5-carboxamide] | 175 to 180

system: multi-resistant Plutella xylostella larvae having the G4946E resistance mutation (strain R1); assay: Resistant Plutella xylostella R1 (Diamond Back Moth) Larvicide L3, Feeding/Contact; type: in vivo; conditions: Plutella xylostella, in Brassica rapa, 96 h, read-out: Rate providing at least 80% control of the resistant strain of Plutella xylostella R1
Description: Resistant Plutella xylostella R1 (Diamond Back Moth) Larvicide L3, Feeding/Contact
Chinese cabbage plants were sprayed with diluted test solutions in an application chamber. Cut off leaves were placed into petri dishes with wetted filter paper and infested 1 day after application with 10 L3 multi-resistant Plutella xylostella larvae having the G4946E resistance mutation. Samples were assessed 4 days after infestation for mortality and growth regulation. CTPR was used as standard and a resistance factor of 146 was obtained for this strain.
Plutella xylostella resistant strain R1 originally collected from Taiwan in 2012 that carries the RyR mutation G4946E conferring resistance to diamides. The strain is reared on cabbage plants (Brassica aleracea) and selected approximately every two weeks with chlorantraniliprole.

Row | SMILES | EC80 [µg/mL]
20 | CNC(=O)c1cc2cc(Br)ccc2c(Br)c1NC(=O)c1cc(C(F)(F)F)nn1-c1ncccc1Cl | 50 (≈ 79.2 µM)
21 | CNC(=O)c1cc2cc(Br)ccc2c(Br)c1NC(=O)c1cc(OCC(F)(F)F)nn1-c1ncccc1Cl | 12.5 (≈ 18.9 µM)
22 | CC(C)NC(=O)c1cc2nn(C)cc2c(Cl)c1NC(=O)c1cc(C(F)(F)F)nn1-c1ncccc1Cl | > 50
23 | CNC(=O)c1cc2cc(Br)ccc2c(Br)c1NC(=O)c1cc(Br)nn1-c1ncccc1Cl | > 200
24 | CNC(=O)c1cc2cc(Cl)ccc2c(Cl)c1NC(=O)c1cc(Br)nn1-c1ncccc1Cl | 200 (≈ 361 µM)
25 | O=C(NC1CC1)c1cc2cc(Br)ccc2c(Cl)c1NC(=O)c1cc(Br)nn1-c1ncccc1Cl | 200 (≈ 320 µM)
26 | CC(C)NC(=O)c1cc2cc(Br)ccc2c(Cl)c1NC(=O)c1cc(Br)nn1-c1ncccc1Cl | 200 (≈ 319 µM)
27 | CNC(=O)c1cc2nc(C(F)(F)F)ccc2c(C)c1NC(=O)c1cc(C(F)F)nn1-c1ncccc1Cl | 200 (≈ 371 µM)
28 | CNC(=O)c1cc2cc(Br)ccc2c(Cl)c1NC(=O)c1cc(C(F)(F)F)nn1-c1ncccc1Cl | > 200
29 | CNC(=O)c1cc2cc(Br)ccc2c(Cl)c1NC(=O)c1cc(Cl)nn1-c1ncccc1Cl | > 200
30 | NC(=O)c1cc2cc(Br)ccc2c(Br)c1NC(=O)c1cc(OCC(F)(F)F)nn1-c1ncccc1Cl [P.1, 2-(3-chloro-2-pyridyl)-N-(1,6-dibromo-3-carbamoyl-2-naphthyl)-5-(2,2,2-trifluoroethoxy)pyrazole-3-carboxamide] | 3 (≈ 4.63 µM)
31 | NC(=O)c1cc2cc(Br)ccc2c(Br)c1NC(=O)c1cc(C(F)(F)F)nn1-c1ncccc1Cl [P.4, 2-(3-chloro-2-pyridyl)-N-(1,6-dibromo-3-carbamoyl-2-naphthyl)-5-(trifluoromethyl)pyrazole-3-carboxamide] | 12.5 (≈ 20.2 µM)
32 | Cc1c(NC(=O)c2cc(C(F)F)nn2-c2ncccc2Cl)c(C(N)=O)cc2nc(C(F)(F)F)ccc12 [P.7, 6-[[2-(3-chloro-2-pyridyl)-5-(difluoromethyl)pyrazole-3-carbonyl]amino]-5-methyl-2-(trifluoromethyl)quinoline-7-carboxamide] | 12.5 (≈ 23.8 µM)
33 | NC(=O)c1cc2cc(Br)ccc2c(Br)c1NC(=O)c1cc(Br)nn1-c1ncccc1Cl [P.8, 5-bromo-2-(3-chloro-2-pyridyl)-N-(1,6-dibromo-3-carbamoyl-2-naphthyl)pyrazole-3-carboxamide] | 50 (≈ 79.6 µM)
34 | NC(=O)c1cc2cc(Cl)ccc2c(Cl)c1NC(=O)c1cc(Br)nn1-c1ncccc1Cl [P.25, 5-bromo-N-(3-carbamoyl-1,6-dichloro-2-naphthyl)-2-(3-chloro-2-pyridyl)pyrazole-3-carboxamide] | 50 (≈ 92.7 µM)
35 | NC(=O)c1cc2cc(Br)ccc2c(Cl)c1NC(=O)c1cc(Cl)nn1-c1ncccc1Cl [P.26, N-(6-bromo-3-carbamoyl-1-chloro-2-naphthyl)-5-chloro-2-(3-chloro-2-pyridyl)pyrazole-3-carboxamide] | 50 (≈ 92.7 µM)
36 | NC(=O)c1cc2cc(Br)ccc2c(Cl)c1NC(=O)c1cc(Br)nn1-c1ncccc1Cl [P.27, 5-bromo-N-(6-bromo-3-carbamoyl-1-chloro-2-naphthyl)-2-(3-chloro-2-pyridyl)pyrazole-3-carboxamide] | 50 (≈ 85.6 µM)
37 | NC(=O)c1cc2cc(Br)ccc2c(Cl)c1NC(=O)c1cc(C(F)(F)F)nn1-c1ncccc1Cl [P.28, N-(6-bromo-3-carbamoyl-1-chloro-2-naphthyl)-2-(3-chloro-2-pyridyl)-5-(trifluoromethyl)pyrazole-3-carboxamide] | 50 (≈ 87.2 µM)
38 | Cn1cc2c(Cl)c(NC(=O)c3cc(C(F)(F)F)nn3-c3ncccc3Cl)c(C(N)=O)cc2n1 [P.36, 4-chloro-5-[[2-(3-chloro-2-pyridyl)-5-(trifluoromethyl)pyrazole-3-carbonyl]amino]-2-methyl-indazole-6-carboxamide] | 3 (≈ 6.02 µM)

same assay, conditions: strain R1; CTPR used as standard

Row | SMILES | resistance factor
39 | CNC(=O)c1cc(Cl)cc(C)c1NC(=O)c1cc(Br)nn1-c1ncccc1Cl [CTPR, chlorantraniliprole, reference compound] | 146
